Measurements published in US20170073337A1, “DIHYDROTHIAZINE AND DIHYDROOXAZINE DERIVATIVES HAVING BACE1 INHIBITORY ACTIVITY” (Shionogi & Co., Ltd., priority 2014, published 2017).
Values after ≈ are worked out from the molar mass of the structure shown. Where two headings read alike, the source gives them in different places.

What was measured:
[1] = Solubility test; type: physicochemical
In short: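 Dissolved concentration determined by LC/MS or SPE/MS (absolute calibration) in diluted filtrates, after 2 μL of 10 mmol/L DMSO stock was added to 198 μL JP 1st or JP 2nd fluid and equilibrated either 1 h with shaking at room temperature or 16 h standing at 25 °C.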

[2] = Metabolic stability test; type: in vitro ADME; settings: human liver microsomes, 37° C., 30 minutes, NADPH
In short: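 Parent compound was measured by LC/MS/MS or SPE/MS after a methanol/acetonitrile quench and reported as % remaining, with the 0 min sample set to 100%. Incubations ran 30 min at 37 °C in pH 7.4 Tris buffer containing pooled human liver microsomes at 0.5 mg protein/mL and 1 mmol/L NADPH.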

[3] = target: T1, CYP2C19 (Homo sapiens, UniProt P33261); test: CYP inhibition test (CYP2C19); type: in vitro ADME; settings: pooled human liver microsomes; mephenytoin 4′-hydroxylation
T1 construct: The commercially available pooled human liver microsomes are used as an enzyme resource; from tissue; host or cells: pooled human liver microsomes
T1 sequence (P33261 whole entry): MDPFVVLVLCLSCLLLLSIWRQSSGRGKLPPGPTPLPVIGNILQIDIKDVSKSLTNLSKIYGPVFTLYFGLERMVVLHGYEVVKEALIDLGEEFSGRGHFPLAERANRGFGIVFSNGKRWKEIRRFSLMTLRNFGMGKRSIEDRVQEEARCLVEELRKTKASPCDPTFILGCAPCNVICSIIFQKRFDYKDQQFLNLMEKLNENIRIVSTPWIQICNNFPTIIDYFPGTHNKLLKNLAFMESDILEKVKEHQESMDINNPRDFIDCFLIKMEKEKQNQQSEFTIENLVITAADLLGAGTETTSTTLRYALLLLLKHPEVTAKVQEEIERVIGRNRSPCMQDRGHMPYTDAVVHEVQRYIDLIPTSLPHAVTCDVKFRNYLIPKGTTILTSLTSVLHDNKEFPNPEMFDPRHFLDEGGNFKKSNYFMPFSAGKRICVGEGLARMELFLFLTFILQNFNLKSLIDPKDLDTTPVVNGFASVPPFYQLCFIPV
In short: (§1)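 Pooled human liver microsomes (0.2 mg protein/mL) with compound at 1, 5, 10 and 20 μmol/L and NADPH, at 37 °C. Marker substrates: dextromethorphan 5 μmol/L (2D6), terfenadine 1 μmol/L (3A4), S-mephenytoin 50 μmol/L (2C19), tolbutamide 100 μmol/L (2C9). Metabolites were measured by LC/MS/MS, and IC50 was derived by logistic fit of remaining activity against the DMSO control.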

[4] = target: T2, CYP3A4 (Homo sapiens, UniProt P08684); test: CYP inhibition test (CYP3A4); type: in vitro ADME; settings: pooled human liver microsomes; terfenadine hydroxylation
T2 construct: The commercially available pooled human liver microsomes are used as an enzyme resource; from tissue; host or cells: pooled human liver microsomes
T2 sequence (P08684 whole entry): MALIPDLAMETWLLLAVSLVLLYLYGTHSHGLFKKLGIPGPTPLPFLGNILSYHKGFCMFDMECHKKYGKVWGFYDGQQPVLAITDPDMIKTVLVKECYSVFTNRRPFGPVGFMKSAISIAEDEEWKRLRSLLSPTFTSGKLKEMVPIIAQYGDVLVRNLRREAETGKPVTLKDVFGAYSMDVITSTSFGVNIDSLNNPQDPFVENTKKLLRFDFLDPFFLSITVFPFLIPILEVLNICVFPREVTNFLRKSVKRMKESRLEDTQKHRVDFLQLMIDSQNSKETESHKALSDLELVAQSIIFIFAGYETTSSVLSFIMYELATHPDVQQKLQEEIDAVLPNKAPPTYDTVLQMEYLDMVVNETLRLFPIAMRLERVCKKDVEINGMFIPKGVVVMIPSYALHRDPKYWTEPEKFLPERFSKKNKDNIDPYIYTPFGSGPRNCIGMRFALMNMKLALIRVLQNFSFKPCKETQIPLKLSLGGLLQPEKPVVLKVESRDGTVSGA
In short: as §1

[5] = target: T3, CYP1A2 (Homo sapiens, UniProt P05177); test: CYP inhibition test (CYP1A2); type: in vitro ADME; settings: pooled human liver microsomes; 7-ethoxyresorufin O-deethylation
T3 construct: The commercially available pooled human liver microsomes are used as an enzyme resource; from tissue; host or cells: pooled human liver microsomes
T3 sequence (P05177 1-516): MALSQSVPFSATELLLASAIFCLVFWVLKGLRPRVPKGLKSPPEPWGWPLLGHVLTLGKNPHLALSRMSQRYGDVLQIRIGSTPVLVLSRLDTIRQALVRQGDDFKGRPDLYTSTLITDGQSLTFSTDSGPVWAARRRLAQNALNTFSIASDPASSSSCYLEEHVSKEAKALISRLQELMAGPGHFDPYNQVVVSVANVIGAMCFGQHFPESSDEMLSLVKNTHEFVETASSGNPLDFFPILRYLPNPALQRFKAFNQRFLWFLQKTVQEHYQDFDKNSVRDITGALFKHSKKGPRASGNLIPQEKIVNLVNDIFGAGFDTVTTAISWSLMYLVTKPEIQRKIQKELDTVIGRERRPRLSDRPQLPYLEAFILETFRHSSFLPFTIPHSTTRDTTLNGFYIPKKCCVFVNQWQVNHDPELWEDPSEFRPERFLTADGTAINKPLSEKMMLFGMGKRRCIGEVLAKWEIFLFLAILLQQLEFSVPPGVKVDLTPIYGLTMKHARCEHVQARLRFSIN
In short: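 Inhibition of CYP1A2 was measured in commercially available pooled human liver microsomes (0.2 mg protein/mL) using 7-ethoxyresorufin O-deethylation with 0.5 μmol/L ethoxyresorufin. Test compound at 1, 5, 10, 20 μmol/L in […] Hepes buffer was incubated at 37° C. after NADPH addition; methanol/acetonitrile=1/1 (v/v) stopped the reaction, and resorufin was read fluorescently.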

[6] = target: T4, human ether-a-go-go related gene (hERG) channel (Homo sapiens, UniProt Q12809); test: hERG test; type: cell-based; settings: % inhibition of IKr tail peak current at 3 uM; CHO cells expressing hERG
T4 construct: expressed in transfected cells; host or cells: CHO cells
T4 sequence (Q12809 whole entry): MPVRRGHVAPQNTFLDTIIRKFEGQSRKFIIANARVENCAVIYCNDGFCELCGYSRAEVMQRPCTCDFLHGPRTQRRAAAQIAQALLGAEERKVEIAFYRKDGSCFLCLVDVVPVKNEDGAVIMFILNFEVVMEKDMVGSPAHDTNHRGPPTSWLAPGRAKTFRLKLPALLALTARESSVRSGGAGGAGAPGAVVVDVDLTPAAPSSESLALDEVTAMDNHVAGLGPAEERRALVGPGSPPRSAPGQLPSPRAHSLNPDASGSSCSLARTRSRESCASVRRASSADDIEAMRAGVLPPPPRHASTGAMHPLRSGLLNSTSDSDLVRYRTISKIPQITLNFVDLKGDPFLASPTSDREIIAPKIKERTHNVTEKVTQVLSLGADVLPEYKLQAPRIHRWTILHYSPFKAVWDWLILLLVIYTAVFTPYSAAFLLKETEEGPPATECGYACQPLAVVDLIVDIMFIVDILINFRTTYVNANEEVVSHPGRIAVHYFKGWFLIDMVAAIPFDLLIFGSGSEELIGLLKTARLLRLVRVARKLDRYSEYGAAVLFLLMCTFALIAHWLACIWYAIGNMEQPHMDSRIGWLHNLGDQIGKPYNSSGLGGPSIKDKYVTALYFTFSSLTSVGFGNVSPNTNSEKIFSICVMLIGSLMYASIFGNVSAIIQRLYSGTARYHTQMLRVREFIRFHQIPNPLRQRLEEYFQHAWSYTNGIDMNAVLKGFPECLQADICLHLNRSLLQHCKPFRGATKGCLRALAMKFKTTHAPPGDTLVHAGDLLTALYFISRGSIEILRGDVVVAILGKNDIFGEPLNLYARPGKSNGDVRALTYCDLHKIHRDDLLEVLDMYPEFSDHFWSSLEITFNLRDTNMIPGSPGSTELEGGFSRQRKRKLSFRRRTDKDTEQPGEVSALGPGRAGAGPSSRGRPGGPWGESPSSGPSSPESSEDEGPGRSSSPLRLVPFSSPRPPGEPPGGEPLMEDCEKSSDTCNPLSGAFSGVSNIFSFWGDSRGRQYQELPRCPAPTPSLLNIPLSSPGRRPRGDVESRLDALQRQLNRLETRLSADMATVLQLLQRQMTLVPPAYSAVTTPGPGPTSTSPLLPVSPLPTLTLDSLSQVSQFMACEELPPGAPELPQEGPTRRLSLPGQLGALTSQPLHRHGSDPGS
In short: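 IKr was recorded from hERG-expressing CHO cells by automated whole-cell patch clamp at a holding potential of −80 mV. A −50 mV leak step was followed by a 2 s depolarization to +20 mV and a 2 s repolarization to −50 mV, when current was measured.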

[7] = JP 1st fluid, pH 1.2, simulated gastric fluid, kinetic from dmso stock, read-out: JP1
[8] = JP 2nd fluid B, pH 6.8, aqueous buffer, kinetic from dmso stock, read-out: JP2_μM
[9] = JP 2nd fluid A, pH 6.8, aqueous buffer, kinetic from dmso stock, read-out: JP2_μM
[10] = solubility in JP 2nd fluid B, 1% DMSO, *2: shaken for 1 hour at room temperature, read-out: JP2_μM
[11] = JP 1st fluid, 25 °C, pH 1.2, simulated gastric fluid, kinetic from dmso stock, read-out: JP1
[12] = JP 2nd fluid A, 25 °C, pH 6.8, aqueous buffer, kinetic from dmso stock, read-out: JP2_μM

solubility kinetic at 1 h [1, 7] [µM]	solubility kinetic at 1 h [1, 8] [µM]	remaining % [2] [%]	IC50 [3] [µM]	IC50 [4] [µM]	IC50 [5] [µM]	solubility kinetic at 1 h [1, 9] [µM]	solubility kinetic at 16 h [1, 10] [µM]	solubility kinetic at 16 h [1, 11] [µM]	solubility kinetic at 16 h [1, 12] [µM]	SMILES	hERG_3 uM_% [6] [%]
40.6 (≈ 16.5 µg/mL)	> 50	77.7	≥ 20	≥ 20	≥ 20					C[C@H]1SC(N)=N[C@](C)(c2cccc(NC(=O)c3cnc(OCF)cn3)c2)[C@H]1F [Compound I-104]	
> 50		105				> 50				C[C@H]1[C@@H](C(F)(F)F)OC(N)=N[C@]1(C)c1cc(NC(=O)c2cnc(OCF)cn2)ccc1F [Compound I-41]	24.8
> 50		96.5	≥ 20		≥ 20		>50			C[C@]1(c2cc(NC(=O)c3cnc(OCF)cn3)ccc2F)N=C(N)O[C@H](C(F)(F)C2CC2)[C@@H]1F [Compound I-82]	17.5
42 (≈ 17.2 µg/mL)	> 50	84.1	≥ 20	≥ 20	≥ 20					C[C@H]1SC(N)=N[C@](C)(c2cccc(NC(=O)c3cnc(C(F)F)cn3)c2)[C@H]1F [Compound I-106]	
			≥ 20	≥ 20	≥ 20			> 50	> 50	C[C@]1(c2cc(NC(=O)c3ccc(C#N)cn3)ccc2F)N=C(N)O[C@H]2[C@@H]1OCC2(F)F [Compound I-35]	41.1
> 50			≥ 20	≥ 10	≥ 20		>50			COc1cnc(C(=O)Nc2ccc(F)c([C@@]3(C)N=C(N)SCC34CC(F)(F)C4)c2)cn1 [Compound I-55]	39.5
49.4 (≈ 19.2 µg/mL)	> 50	78.3	≥ 20	≥ 20	≥ 20					COc1cnc(C(=O)Nc2cccc([C@@]3(C)N=C(N)S[C@H](C)[C@@H]3F)c2)cn1 [Compound I-103]	
> 50	29.6 (≈ 13.8 µg/mL)	55.3	≥ 20		≥ 20					COc1cnc(C(=O)Nc2ccc(F)c([C@@]3(C)N=C(N)O[C@H](C(F)(F)C4CC4)[C@@H]3F)c2)cn1 [Compound I-83]	18.1
> 50		92.9	≥ 20	≥ 20	≥ 20	39.5 (≈ 18.1 µg/mL)				C[C@H]1SC(N)=N[C@](C)(c2cc(NC(=O)c3cnc(OCC(F)F)cn3)ccc2F)[C@H]1F [Compound I-48]	
> 50		66.8	≥ 20		≥ 20		>50			C[C@]1(c2cc(NC(=O)c3ccc(C#N)cn3)ccc2F)N=C(N)SCC12CC(F)(F)C2 [Compound I-59]	
> 50		91.8	≥ 20	≥ 20	≥ 20		>50.0			C[C@]1(c2cc(NC(=O)c3ccc(OCF)cn3)ccc2F)N=C(N)O[C@H](C2(F)CC2)[C@@H]1F [Compound I-101]	
			≥ 20	≥ 20	≥ 20			46.4 (≈ 18.9 µg/mL)	> 50	COc1cnc(C(=O)Nc2ccc(F)c([C@@]3(C)N=C(N)S[C@H](C)[C@@H]3F)c2)cn1 [Compound I-8]	16.7
			≥ 20	≥ 20	≥ 20			39.2 (≈ 18 µg/mL)	> 50	C[C@H]1[C@@H](C(F)(F)F)OC(N)=N[C@]1(C)c1cc(NC(=O)c2cnc(OCF)cn2)ccc1F [Compound I-30]	15.1
> 50			≥ 20	≥ 20	≥ 20		>50			COc1ccc(C(=O)Nc2ccc(F)c([C@@]3(C)N=C(N)S[C@H](C)[C@@H]3F)c2)nc1 [Compound I-50]	34.3
		95.6	≥ 20	≥ 20	≥ 20			40 (≈ 19.3 µg/mL)	> 50	C[C@]1(c2cc(NC(=O)c3ccc(C#N)cn3)ccc2F)N=C(N)O[C@H](CF)[C@@H]1OCC(F)(F)F [Compound I-10]	
> 50			≥ 20	≥ 10	≥ 20		>50			COCC(F)(F)[C@H]1OC(N)=N[C@](C)(c2cc(NC(=O)c3cnc(OCF)cn3)ccc2F)[C@H]1F [Compound I-79]	7.8
> 50			≥ 20		≥ 20		>50			C[C@H]1SC(N)=N[C@](C)(c2cc(NC(=O)c3cnc(OCF)cn3)ccc2F)C12CC(F)(F)C2 [Compound I-62]	29.6
45.8 (≈ 19.7 µg/mL)	> 50	101	≥ 20	≥ 20	≥ 20					C[C@]1(c2cc(NC(=O)c3ccc(C#N)cn3)ccc2F)N=C(N)O[C@H](C2(F)CC2)[C@@H]1F [Compound I-96]	
			≥ 20	≥ 20	≥ 20			35.8 (≈ 15.1 µg/mL)	> 50	C[C@]1(c2nc(NC(=O)c3ccc(C#N)cn3)ccc2F)N=C(N)S[C@H](CF)[C@@H]1F [Compound I-4]	47.9
33.9 (≈ 14.4 µg/mL)			≥ 20	≥ 20	≥ 20	> 50				COc1cnc(C(=O)Nc2ccc(F)c([C@@]3(C)N=C(N)O[C@H]([C@H](C)F)[C@@H]3F)c2)cn1 [Compound I-17]	19.5
		82						> 50	> 50	C[C@@]1(c2cc(NC(=O)c3ccc(C#N)cn3)ccc2F)C[C@@](C)(C(F)(F)F)OC(N)=N1 [Compound I-7]	47.4
		82.4	≥ 20	≥ 20	≥ 20			> 50	> 50	C[C@H]1SC(N)=N[C@](C)(c2nc(NC(=O)c3ccc(C#N)cn3)ccc2F)[C@H]1F [Compound I-1]	
> 50	8.2 (≈ 3.93 µg/mL)		≥ 10		≥ 20					CC#CCOc1cnc(C(=O)Nc2ccc(F)c([C@@]3(C)N=C(N)O[C@H](C(C)(F)F)[C@@H]3F)c2)cn1 [Compound I-76]	5.8
			≥ 20	≥ 20	≥ 20			40.4 (≈ 17.6 µg/mL)	> 50	C[C@H]1[C@@H](C(F)(F)F)OC(N)=N[C@]1(C)c1cc(NC(=O)c2ccc(C#N)cn2)ccc1F [Compound I-28]	36.2
